Assay results taken from patent US5958886A, “Carnitine-containing peptides and a method for using the same” (Sigma-Tau Pharmaceuticals, Inc., priority 1998, dated 1999).
Non-standard residues stand in square brackets, D forms with d. Residues, ends and D or L forms follow the SMILES beside them. Sar = CNCC(=O)O

Key:
[1] = target: T1, peptide carrier (Homo sapiens, UniProt P46059); experiment: Inhibition of glycyl-sarcosine transport via the peptide carrier in Caco-2 cells; assay type: cell-based
T1 construct: endogenous in cells; host or cells: Caco-2 cells
T1 sequence (P46059 1-708): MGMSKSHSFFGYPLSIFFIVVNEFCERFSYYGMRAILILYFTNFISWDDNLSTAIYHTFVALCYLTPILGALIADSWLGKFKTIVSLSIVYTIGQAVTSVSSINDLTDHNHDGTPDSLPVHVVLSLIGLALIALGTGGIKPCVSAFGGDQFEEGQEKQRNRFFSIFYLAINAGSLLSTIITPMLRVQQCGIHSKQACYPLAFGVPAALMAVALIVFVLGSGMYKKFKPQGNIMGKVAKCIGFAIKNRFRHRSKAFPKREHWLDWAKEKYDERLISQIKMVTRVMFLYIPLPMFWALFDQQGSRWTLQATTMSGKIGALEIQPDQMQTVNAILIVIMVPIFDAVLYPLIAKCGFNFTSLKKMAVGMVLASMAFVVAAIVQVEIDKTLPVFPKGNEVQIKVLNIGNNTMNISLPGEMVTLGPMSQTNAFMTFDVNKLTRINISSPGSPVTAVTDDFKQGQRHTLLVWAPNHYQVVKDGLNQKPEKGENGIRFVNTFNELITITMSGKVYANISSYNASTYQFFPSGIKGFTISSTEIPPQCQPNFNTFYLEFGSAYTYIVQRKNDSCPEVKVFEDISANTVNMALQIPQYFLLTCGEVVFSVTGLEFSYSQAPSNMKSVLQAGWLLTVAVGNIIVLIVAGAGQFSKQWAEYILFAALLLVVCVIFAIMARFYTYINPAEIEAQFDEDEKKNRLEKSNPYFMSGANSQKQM
From the text: Carnityl-alanyl-alanine (CAA) is a peptide derivative of carnitine. In this experiment, the ability of CAA to compete with glycyl-sarcosine for transport via the peptide carrier was studied in Caco-2 cells. These cells are a good model system for the human intestine and they express the peptide carrier as does the human intestine. Glycyl-sarcosine is a standard substrate for the peptide carrier. If CAA is taken up by the peptide carrier it is expected to compete with glycyl-sarcosine for transport via the carrier and thus inhibit the transport.

[2] = target: T2, peptide carrier from human intestine (Homo sapiens, UniProt P46059); experiment: Charge transfer in Xenopus oocytes expressing the peptide carrier from human intestine (electrophysiological approach); assay type: cell-based; conditions: Xenopus oocytes expressing human intestinal peptide carrier; exposure to 10 mM
T2 construct: expressed in transfected cells; host or cells: Xenopus oocytes injected with peptide transporter mRNA
T2 sequence (P46059 1-708): T1 sequence (P46059 1-708)
From the text: In this experiment, Xenopus (frog) oocytes which were made to express the peptide carrier from human intestine by injection of its peptide transporter mRNA were used to study the transport of CAA via the carrier. The peptide carrier uses the energy from a proton gradient and peptide transport via the carrier leads to a transfer of positive charge into the oocytes. This charge transfer can be monitored using the electrophysiological approach. If CAA is transported via the peptide carrier, exposure of the oocytes to CAA is expected to result in the transfer of positive charge.

| Compound | inhibition of glycyl-sarcosine transport (in words) ([1]; Caco-2 cells, under similar conditions) | charge transfer into oocytes (in words) [2] | inhibition of the transport of glycylsarcosine ([1]; Caco-2 cells, at 10 mM) [%] | inhibition of the transport of glycylsarcosine ([1]; Caco-2 cells, at 20 mM) [%] | affinity for the intestinal peptide carrier ([1]; concluded from the Caco-2 and oocyte experiments) |
| --- | --- | --- | --- | --- | --- |
| C[N+](C)(C)CC(O)CC(=O)[O-] (stereo not drawn) [Free carnitine, Carnitine] | does not inhibit | – | – | – | – |
| CN(CC(=O)O)C(=O)CN [glycyl-sarcosine, Glycyl-sarcosine, reference compound] (H-Gly-[Sar]-OH) | – | charge transfer found | – | – | – |
| Carnityl-alanyl-alanine [CAA] | – | induced charge transfer | 35 | 80 | millimolar range |
